In patent publication US6805816B1, “Method of producing π-conjugated polymers” (Bayer Aktiengesellschaft, priority 1999, dated 2004):
In brackets after ≈: the same amount, converted by molar mass.

Assays:
[1] = Stability: discoloration in air; conditions: Monomer alone; in air after only a few hours
[2] = physchem
Description: The cyclodextrin employed was in each case 2,6-dimethyl-β-cyclodextrin.

| SMILES | Stability [1] | increase of water solubility [2] | solubility ([2]; 20 °C, water) |
| --- | --- | --- | --- |
| c1cc[nH]c1 [Pyrrole, pyrrole] | Pyrrole: discoloration |  |  |
| c1scc2c1OCCO2 [EDT, 3,4-ethylenedioxythiophene] |  | more than 30 fold | 2100 µg/mL (≈ 14.8 mM) |
